Test results: patent US20250206761A1, “HALOINDOLE MACROCYCLIC COMPOUNDS FOR THE TREATMENT OF CANCER” (Hoffmann-La Roche Inc., priority 2022, published 2025)

Tests used:
[1] = tested on: NCI-H358 (ATCC-CRL5807) cells; assay: Cell viability assay, G12C (NCI-H358); format: cell-based, human; settings: Homo sapiens; KRAS cell viability, NCI-H358, 72 hrs, Cell Counting Kit-8
Method in brief: (§1)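 Cells seeded at 5,000/well (NCI-H358) or 2,000/well (AGS, SW620), treated next day at 0.5% final DMSO for 72 h. Viability read by CCK-8 (OD450 minus OD650) after 2 h; IC50 from 4-parameter sigmoidal fit.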

[2] = tested on: AGS (ATCC-CRL-1739) cells; assay: Cell viability assay, G12D (AGS); format: cell-based, human; settings: Homo sapiens, KRAS cell viability, 72 hrs, Cell Counting Kit-8
Method in brief: as §1

[3] = tested on: SW620 (ATCC-CCL-227); assay: Cell viability assay, G12V (SW620); format: cell-based, human; settings: Homo sapiens, SW-620; KRAS cell viability, SW620, 72 hrs, Cell Counting Kit-8
Method in brief: as §1

[4] = molecular target: KRAS G12C-BRAF complex (Homo sapiens (Human), UniProt P01116+P62937, G12C); assay: KRAS-BRAF with CYPA (500 nM) interaction assay (TR-FRET), G12C; format: biochemical
Sequence of KRAS G12C-BRAF complex (P01116-2 other isoform, or with tags, fused parts or gaps G12C): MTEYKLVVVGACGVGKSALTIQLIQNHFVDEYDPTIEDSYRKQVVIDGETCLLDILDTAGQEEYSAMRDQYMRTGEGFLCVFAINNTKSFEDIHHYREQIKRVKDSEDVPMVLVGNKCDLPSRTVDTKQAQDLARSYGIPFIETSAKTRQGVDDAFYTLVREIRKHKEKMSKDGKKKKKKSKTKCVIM
Sequence of KRAS G12C-BRAF complex (P62937 whole entry): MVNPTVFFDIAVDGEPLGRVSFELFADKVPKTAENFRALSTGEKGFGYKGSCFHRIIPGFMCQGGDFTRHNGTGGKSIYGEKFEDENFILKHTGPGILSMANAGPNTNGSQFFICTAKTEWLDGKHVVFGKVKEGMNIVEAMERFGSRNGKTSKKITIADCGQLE

[5] = molecular target: KRAS G12D binding to BRAF (Homo sapiens (Human), UniProt P01116+P62937, G12D); assay: KRAS-BRAF with CYPA (500 nM) interaction assay (TR-FRET), G12D; format: biochemical
Sequence of KRAS G12D binding to BRAF (P01116-2 other isoform, or with tags, fused parts or gaps G12D): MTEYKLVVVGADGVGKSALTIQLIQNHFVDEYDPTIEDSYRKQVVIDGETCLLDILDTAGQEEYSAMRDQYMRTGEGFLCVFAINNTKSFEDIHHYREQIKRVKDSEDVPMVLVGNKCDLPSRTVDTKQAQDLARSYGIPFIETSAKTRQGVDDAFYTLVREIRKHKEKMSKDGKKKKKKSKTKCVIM
Sequence of KRAS G12D binding to BRAF (P62937 whole entry): as the sequence (P62937 whole entry) above

[6] = molecular target: KRAS G12V binding to BRAF (Homo sapiens (Human), UniProt P01116+P62937, G12V); assay: KRAS-BRAF with CYPA (500 nM) interaction assay (TR-FRET), G12V; format: biochemical
Sequence of KRAS G12V binding to BRAF (P01116-2 other isoform, or with tags, fused parts or gaps G12V): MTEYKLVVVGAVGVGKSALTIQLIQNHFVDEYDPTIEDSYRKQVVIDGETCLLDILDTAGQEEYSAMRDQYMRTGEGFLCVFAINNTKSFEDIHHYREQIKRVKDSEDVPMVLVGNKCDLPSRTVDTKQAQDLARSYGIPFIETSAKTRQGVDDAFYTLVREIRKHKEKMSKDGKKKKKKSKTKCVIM
Sequence of KRAS G12V binding to BRAF (P62937 whole entry): as the sequence (P62937 whole entry) above
Method in brief: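 A TR-FRET assay measured how compound, in the presence of CYPA, disrupts binding of GMPPNP-loaded 6His-KRAS G12V to BRAF. The buffer contained 25 mM HEPES PH=7.4, 0.002% Tween20, 0.1% BSA, 100 mM NaCl, 5 mM MgCl2 and 10 μM GMPPNP. Compounds ran as a 16-point 3-fold dilution series from 10 μM for 3 hours.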

[7] = tested on: phosphorylation of ERK, KRAS G12C in NCJ-H358 cells; assay: pERK inhibition assay, KRAS G12C; format: cell-based, human; settings: Homo sapiens, 4 hours
Method in brief: (§2)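 4 h compound treatment (0.5% DMSO final) of overnight-plated cells; formaldehyde fix, cold MeOH permeabilization, BSA block. Anti-pERK primary overnight at 4 °C, HRP anti-rabbit secondary, TMB readout at OD450. IC50 via 4-parameter sigmoidal model.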

[8] = tested on: phosphorylation of ERK, KRAS G12D in AGS cells; assay: pERK inhibition assay, KRAS G12D; format: cell-based, human; settings: Homo sapiens, 4 hours
Procedure: This assay is to measure the ability of test compounds in inhibiting the phosphorylation of ERK, the downstream signaling of KRAS G12C in NCJ-H358 cells, KRAS G12D in AGS cells, and KRAS G12V in SW620. NCJ-H358 (ATCC-CRL5807) cells, AGS (ATCC-CRL-1739) cells, SW620 (ATCC-CCL-227) cells were all grown and maintained using RPMI-1640 medium (Thermo Fisher Scientific) with 10% fetal bovine serum and 1% penicillin/streptomycin. On the day prior to compound addition, cells were plated in tissue culture-treated 96 well plates (Corning-3699) at a density of 30,000 cell/well, 20,000 cell/well, 30,000 cell/well for NCJ-H358, AGS and SW620 respectively, and allowed for attachment overnight. Diluted compounds were then added in a final concentration of 0.5% DMSO. After 4 hours of incubation, the medium was removed, 100 μL of 4% formaldehyde was added, and the assay plates were incubated at room temperature for 20 minutes. The plates were then washed once with phosphate buffered saline (PBS), and permeabilized with 100 μL of chilled methanol for 10 minutes. Non-specific antibody binding to the plates was blocked using 50 μL 1×BSA blocking buffer (Thermo-37520, 10-fold dilution by Phosphate-Buffered Saline Tween (PBST) for at least 1 hour at room temperature.
The amount of phosphor-ERK was determined using an antibody specific for phosphorylated form of ERK. Primary antibody (pERK, CST-4370, Cell Signaling Technology) was diluted 1:300 in blocking buffer, with 50 μL aliquoted to each well, and incubated overnight at 4′° C. Cells was washed five times for 5 minutes with PBST. Secondary antibody ([…] anti-rabbit IgG, CST-7074, Cell Signaling Technology) was diluted 1:1000 in blocking buffer, and 50 μL was added to each well and incubated 1-2 hrs at room temperature. Cells was washed 5 times for 5 minutes with PBST, 100 μL TMB ELISA substrate (abcam-ab171523) were added and gently shake for 20 minutes. 50 μL stop solution (abcam-ab171529) were added, and then read the signal (OD450) by EnVision.
IC50 was determined by fitting a 4-parameter sigmoidal concentration response model.

[9] = tested on: phosphorylation of ERK, KRAS G12V in SW620; assay: pERK inhibition assay, KRAS G12V; format: cell-based, human; settings: Homo sapiens, SW-620, SW620, 4 hours
Method in brief: as §2

Compound | IC50 [1] [nM] | IC50 [2] [nM] | IC50 [3] [nM] | IC50 [4] [nM] | IC50 [5] [nM] | IC50 [6] [nM] | IC50 [7] [nM] | IC50 [8] [nM] | IC50 [9] [nM]
CO[C@@H](C)c1ncc(N2CCN(C)CC2)cc1-c1c2c3cc(c(F)cc3n1CC(F)(F)F)-c1csc(n1)C[C@H](NC(=O)[C@H](C(C)C)N(C)C(=O)[C@H]1CCN(C(=O)[C@H](F)Cl)C1)C(=O)N1CCC[C@H](N1)C(=O)OCC(C)(C)C2 (atropisomer, axis not shown; (M)) [Example 2, (3S)-1-[(2R)-2-chloro-2-fluoro-acetyl]-N-[(1S)-1-[[(7S,13S)-24-fluoro-(20M)-20-[2-[(1S)-1-methoxyethyl]-5-(4-methylpiperazin-1-yl)-3-pyridyl]-17,17-dimethyl-8,14-dioxo-21-(2,2,2-trifluoroethyl)-15-oxa-4-thia-9,21,27,28-tetrazapentacyclo[17.5.2.1^2,5.1^9,13.0^22,26]octacosa-1(25),2,5(28),19,22(26),23-hexaen-7-yl]carbamoyl]-2-methyl-propyl]-N-methyl-pyrrolidine-3-carboxamide] | 2 | 822 | 175 | 89 | 3980 | 1860 | 2 | 38 | 20
CO[C@@H](C)c1ncc(N2CCN(CC(F)(F)F)CC2)cc1-c1c2c3cc(c(F)cc3n1CC(F)(F)F)-c1csc(n1)C[C@H](NC(=O)[C@H](C(C)C)N(C)C(=O)[C@H]1CCN(C(=O)[C@H](F)Cl)C1)C(=O)N1CCC[C@H](N1)C(=O)OCC(C)(C)C2 (atropisomer, axis not shown; (M)) [Example 26, (3S)-1-[(2R)-2-chloro-2-fluoro-acetyl]-N-[(1S)-1-[[(7S,13S)-24-fluoro-(20M)-20-[2-[(1S)-1-methoxyethyl]-5-[4-(2,2,2-trifluoroethyl)piperazin-1-yl]-3-pyridyl]-17,17-dimethyl-8,14-dioxo-21-(2,2,2-trifluoroethyl)-15-oxa-4-thia-9,21,27,28-tetrazapentacyclo[17.5.2.1^2,5.1^9,13.0^22,26]octacosa-1(25),2,5(28),19,22(26),23-hexaen-7-yl]carbamoyl]-2-methyl-propyl]-N-methyl-pyrrolidine-3-carboxamide] | 1 | 260 | 34 | 46 | > 10000 | 954 | 7 | 15 | 14
CCn1c(-c2cc(N3CCN(C)CC3)cnc2[C@H](C)OC)c2c3cc(c(F)cc31)-c1csc(n1)C[C@H](NC(=O)[C@H](C(C)C)N1CC[C@@]3(CCN(C(=O)[C@H](F)Cl)C3)C1=O)C(=O)N1CCC[C@H](N1)C(=O)OCC(C)(C)C2 (atropisomer, axis not shown; (M)) [Example 30, (2S)-2-[(5R)-7-[(2R)-2-chloro-2-fluoro-acetyl]-1-oxo-2,7-diazaspiro[4.4]nonan-2-yl]-N-[(7S,13S)-21-ethyl-24-fluoro-(20M)-20-[2-[(1S)-1-methoxyethyl]-5-(4-methylpiperazin-1-yl)-3-pyridyl]-17,17-dimethyl-8,14-dioxo-15-oxa-4-thia-9,21,27,28-tetrazapentacyclo[17.5.2.1^2,5.1^9,13.0^22,26]octacosa-1(25),2,5(28),19,22(26),23-hexaen-7-yl]-3-methyl-butanamide] | < 1 | 435 | 1050 | 38 | > 10000 | > 10000 | 2 | 21 | 100
CCn1c(-c2cc(N3CCN(C)CC3)cnc2[C@H](C)OC)c2c3cc(c(F)cc31)-c1csc(n1)C[C@H](NC(=O)[C@H](C(C)C)N1CC[C@]3(CCN(C(=O)[C@H](F)Cl)C3)C1=O)C(=O)N1CCC[C@H](N1)C(=O)OCC(C)(C)C2 (atropisomer, axis not shown; (M)) [Example 31, (2S)-2-[(5S)-7-[(2R)-2-chloro-2-fluoro-acetyl]-1-oxo-2,7-diazaspiro[4.4]nonan-2-yl]-N-[(7S,13S)-21-ethyl-24-fluoro-(20M)-20-[2-[(1S)-1-methoxyethyl]-5-(4-methylpiperazin-1-yl)-3-pyridyl]-17,17-dimethyl-8,14-dioxo-15-oxa-4-thia-9,21,27,28-tetrazapentacyclo[17.5.2.1^2,5.1^9,13.0^22,26]octacosa-1(25),2,5(28),19,22(26),23-hexaen-7-yl]-3-methyl-butanamide] | < 1 | 237 | 44 | 44 | > 10000 | 1980 | 5 | 24 | 12
CCn1c(-c2cc(N3CCN(C)CC3)cnc2[C@H](C)OC)c2c3cc(c(F)cc31)-c1csc(n1)C[C@H](NC(=O)[C@H](C(C)C)N(C)C(=O)[C@H]1CCN(C(=O)[C@H](F)Cl)C1)C(=O)N1CCC[C@H](N1)C(=O)OCC(C)(C)C2 (atropisomer, axis not shown; (M)) [Example 32, (3S)-1-[(2R)-2-chloro-2-fluoro-acetyl]-N-[(1S)-1-[[(7S,13S)-21-ethyl-24-fluoro-(20M)-20-[2-[(1S)-1-methoxyethyl]-5-(4-methylpiperazin-1-yl)-3-pyridyl]-17,17-dimethyl-8,14-dioxo-15-oxa-4-thia-9,21,27,28-tetrazapentacyclo[17.5.2.1^2,5.1^9,13.0^22,26]octacosa-1(25),2,5(28),19,22(26),23-hexaen-7-yl]carbamoyl]-2-methyl-propyl]-N-methyl-pyrrolidine-3-carboxamide] | < 1 | 792 | 430 | 56 | > 10000 | > 10000 | 1 | 14 | 21
CCn1c(-c2cc(N3CCN(CC(F)(F)F)CC3)cnc2[C@H](C)OC)c2c3cc(c(F)cc31)-c1csc(n1)C[C@H](NC(=O)[C@H](C(C)C)N(C)C(=O)[C@H]1CCN(C(=O)[C@H](F)Cl)C1)C(=O)N1CCC[C@H](N1)C(=O)OCC(C)(C)C2 (atropisomer, axis not shown; (M)) [Example 33, (3S)-1-[(2R)-2-chloro-2-fluoro-acetyl]-N-[(1S)-1-[[(7S,13S)-21-ethyl-24-fluoro-(20M)-20-[2-[(1S)-1-methoxyethyl]-5-[4-(2,2,2-trifluoroethyl)piperazin-1-yl]-3-pyridyl]-17,17-dimethyl-8,14-dioxo-15-oxa-4-thia-9,21,27,28-tetrazapentacyclo[17.5.2.1^2,5.1^9,13.0^22,26]octacosa-1(25),2,5(28),19,22(26),23-hexaen-7-yl]carbamoyl]-2-methyl-propyl]-N-methyl-pyrrolidine-3-carboxamide] | < 1 | 338 | 39 | 18 | > 10000 | > 10000 | 4 | 19 | 8
